In US7858588B2, “Immunostimulatory oligodeoxynucleic molecules” (Intercell AG, priority 2001, dated 2010):
Entries after “also recorded” stand apart in the source; their conditions may differ.

Experiments:
Format in all cases: in vivo, Mice C57BI/6
[1] = system: melanoma-derived peptide TRP-2181-188 (TRP-2181-188-specific T cells); experiment: IFN-γ ELISPOT on draining lymph node cells after footpad injection of TRP-2181-188 peptide with ODN; settings: for TRP-2181-188-specific immune response (number of IFN-γ-producing cells/1×10^6 lymph node cells) with co-injection of poly-L-arginine: ODN 5 nmol/mouse + TRP-2181-188 100 μg/mouse + pR60 100 μg/mouse; for TRP-2181-188-specific immune response (number of IFN-γ-producing cells/1×10^6 lymph node cells) with co-injection of poly-L-arginine / TRP-2181-188-specific immune response (number of IFN-γ-producing cells/1×10^6 lymph node cells): hind footpads; for TRP-2181-188-specific immune response (number of IFN-γ-producing cells/1×10^6 lymph node cells) / TRP-2181-188-specific immune response (IFN-γ-producing cells), FIG. 7-9: ODN 5 nmol/mouse + TRP-2181-188 100 μg/mouse; for TRP-2181-188-specific immune response (number of IFN-γ-producing cells/1×10^6 lymph node cells): no poly-L-arginine, lymph nodes 4 days later; for TRP-2181-188-specific immune response (IFN-γ-producing cells), FIG. 7-9: groups with and without pR 60, 4 days
Method: (§1) Animals were sacrificed 4 days after injection and popliteal lymph nodes were harvested. Lymph nodes were passed through a 70 μm cell strainer and washed twice with DMEM medium (GIBCO BRL) containing 5% fetal calf serum (FCS, SIGMA chemicals). Cells were adjusted to the appropriate cell number in DMEM/5%/FCS. An IFN-γ ELISPOT assay was carried out in triplicates as described (Miyahira et al., 1995). This method is a widely used procedure allowing the quantification of antigen-specific T cells. Lymphocytes were stimulated ex vivo in triplicates with medium (background-control), TRP-2181-188-peptide, an irrelevant peptide OVA257-264, pR 60, U-ODN13 and Concanavalin A (Con A). Spots representing single IFN-γ producing T cells were counted and the number of background spots was substracted from all samples. The high number of spots detected after the stimulation with Con A (data not shown) indicates a good condition of the used lymphocytes. For each experimental group of mice the number of IFN-γ-producing cells/1×10^6 cells are illustrated in FIG. 1, the standard deviation of ex vivo-stimulated triplicates is given.
as §1, with “U-ODN15” for “U-ODN13”, “5,” for “1,”
as §1, with “U-ODN 16, ODN 20” for “pR 60, U-ODN13”, “6,” for “1,”
Animals were sacrificed 4 days after injection and popliteal lymph nodes were harvested. Lymph nodes were passed through a 70 μm cell strainer and washed twice with DMEM medium (GIBCO BRL) containing 5% fetal calf serum (FCS, SIGMA chemicals). Cells were adjusted to the appropriate cell number in DMEM/5%/FCS. An IFN-γ ELISPOT assay was carried out in triplicates as described (Miyahira et al., 1995). This method is a widely used procedure allowing the quantification of antigen-specific T cells. […]

[2] = system: ovalbumin-derived peptide OVA257-264; experiment: IFN-γ ELISPOT on draining lymph node cells after footpad injection of OVA257-264 peptide with ODN; settings: ODN 5 nmol/mouse + OVA257-264 300 μg/mouse, no pR60, 4 days
Method: as §1, with “duplicates” for “triplicates”, “OVA257-264 peptide,” for “TRP-2181-188-peptide,”, “TRP-2181-188,” for “OVA257-264,”, “3,” for “1,”

[3] = system: mouse mastocytoma-derived peptide P1A35-43; experiment: IFN-γ ELISPOT on draining lymph node cells after footpad injection of P1A35-43 peptide with ODN
Method: as §1, with “P1A35-43 peptide,” for “TRP-2181-188-peptide,”, “CSP (SYVPSAEQI, SEQ ID NO:18),” for “OVA257-264,”, “U-ODN 13” for “U-ODN13”, “spots/1×10^6” for “IFN-γ-producing cells/1×10^6”, “4,” for “1,”

Substance: tcc atg acu ttc ctg atg ct [U-ODN 13] (TCCATGACUTTCCTGATGCT; chemistry not given here)
- TRP-2181-188-specific immune response (number of IFN-γ-producing cells/1×10^6 lymph node cells) with co-injection of poly-L-arginine ([1]; 4 days): strong immune response; also recorded: does not influence this strong response
- TRP-2181-188-specific immune response (number of IFN-γ-producing cells/1×10^6 lymph node cells) [1]: strong immune response; also recorded: strongly enhances
- TRP-2181-188-specific T cells / immune response compared to CpG-ODN 1668 ([1]; ODN 5 nmol/mouse vs CpG 1668 5 nmol/mouse, each with TRP-2181-188, 4 days): higher number
- OVA257-264-specific immune response (IFN-γ-producing cells/1×10^6 lymph node cells) [2]: induces an immune response
- P1A35-43-specific immune response with co-injection of poly-L-arginine ([3]; ODN 5 nmol/mouse + P1A35-43 100 μg/mouse + pR60 100 μg/mouse, 4 days): further enhanced
- P1A35-43-specific immune response (IFN-γ-producing cells/1×10^6 lymph node cells) ([3]; ODN 5 nmol/mouse + P1A35-43 100 μg/mouse, no pR60, 4 days): strong immune response

Substance: nhh hhh wdu dhh hhh hhh wn [U-ODN 15]
- TRP-2181-188-specific immune response (IFN-γ-producing cells) at 10 times less ODN ([1]; ODN 0.5 nmol/mouse + TRP-2181-188 100 μg/mouse, 4 days): strong immune response could be induced
- TRP-2181-188-specific immune response (number of IFN-γ-producing cells/1×10^6 lymph node cells) with co-injection of poly-L-arginine ([1]; 4 days): does not influence this strong response; also recorded: strong immune response
- TRP-2181-188-specific immune response (number of IFN-γ-producing cells/1×10^6 lymph node cells) [1]: strongly enhances; also recorded: strong immune response

Substance: uuu uuu uuu uuu uuu uuu uuu uuu ut (UUUUUUUUUUUUUUUUUUUUUUUUUT; DNA, all phosphorothioate, T or U not given here) [U-ODN 24]
- TRP-2181-188-specific immune response (IFN-γ-producing cells), FIG. 7-9 [1]: generation of specific immune responses

Substance: tcc atg acu ttc ctg atg ct [U-ODN 13b] (DNA TCCATGACUTTCCTGCTGATGCT; DNA, backbone and methylation of C not given here; further chemistry not fully specified)
- TRP-2181-188-specific immune response (number of IFN-γ-producing cells/1×10^6 lymph node cells) with co-injection of poly-L-arginine ([1]; 4 days): only after co-injection of poly-L-arginine a strong peptide-specific immune response is induced; also recorded: only upon co-injection of poly-L-arginine a high immune response was induced

Substance: uau aua uau aua uau aua uau aua ua (UAUAUAUAUAUAUAUAUAUAUAUAUA; DNA, all phosphorothioate, T or U not given here) [U-ODN 21]
- TRP-2181-188-specific immune response (IFN-γ-producing cells), FIG. 7-9 [1]: generation of specific immune responses

Substance: uiu iui uiu iui uiu iui uiu iui ug [U-ODN 22]
- TRP-2181-188-specific immune response (IFN-γ-producing cells), FIG. 7-9 [1]: generation of specific immune responses

Substance: hhh wdu dhh h [U-ODN 16]
- TRP-2181-188-specific immune response (IFN-γ-producing cells), 10mer cocktail ([1]; ODN 10 nmol/mouse + TRP-2181-188 100 μg/mouse, no pR60, compared to peptide alone or with ODN 20, 4 days): strong immune response
